Reference: ChEMBL document CHEMBL4321828, “Recent developments on (-)-colchicine derivatives: Synthesis and structure-activity relationship” (Eur J Med Chem, 2020)
Each block holds one compound with its values, some of them ahead of it.

What was measured:
HCT-116 = assay: Antiproliferative activity against human HCT116 cells assessed as reduction in cell viability incubated for 48 hrs by MTT assay; assay type: functional, cell-based; conditions: HCT-116, 48 h
COLO 205 = assay: Antiproliferative activity against human COLO205 cells assessed as reduction in cell viability incubated for 48 hrs by MTT assay; assay type: functional, cell-based; conditions: COLO 205, 48 h
[1] = target: ATP-dependent translocase ABCB1 (Homo sapiens, UniProt P08183); assay: Induction of P-gp in human LS180 cells assessed as […] in intracellular accumulation of Rh123 at 100 nM using Rho123 as substrate preincubated for 48 hrs followed by addition of Rh123 and measured after 90 mins by fluorescence based assay relative to control; assay type: cell-based; conditions: ls180, 48 h preincubation, then 1.5 h with Rh123, 0.1 µM
Chain of ATP-dependent translocase ABCB1 (P08183 whole entry): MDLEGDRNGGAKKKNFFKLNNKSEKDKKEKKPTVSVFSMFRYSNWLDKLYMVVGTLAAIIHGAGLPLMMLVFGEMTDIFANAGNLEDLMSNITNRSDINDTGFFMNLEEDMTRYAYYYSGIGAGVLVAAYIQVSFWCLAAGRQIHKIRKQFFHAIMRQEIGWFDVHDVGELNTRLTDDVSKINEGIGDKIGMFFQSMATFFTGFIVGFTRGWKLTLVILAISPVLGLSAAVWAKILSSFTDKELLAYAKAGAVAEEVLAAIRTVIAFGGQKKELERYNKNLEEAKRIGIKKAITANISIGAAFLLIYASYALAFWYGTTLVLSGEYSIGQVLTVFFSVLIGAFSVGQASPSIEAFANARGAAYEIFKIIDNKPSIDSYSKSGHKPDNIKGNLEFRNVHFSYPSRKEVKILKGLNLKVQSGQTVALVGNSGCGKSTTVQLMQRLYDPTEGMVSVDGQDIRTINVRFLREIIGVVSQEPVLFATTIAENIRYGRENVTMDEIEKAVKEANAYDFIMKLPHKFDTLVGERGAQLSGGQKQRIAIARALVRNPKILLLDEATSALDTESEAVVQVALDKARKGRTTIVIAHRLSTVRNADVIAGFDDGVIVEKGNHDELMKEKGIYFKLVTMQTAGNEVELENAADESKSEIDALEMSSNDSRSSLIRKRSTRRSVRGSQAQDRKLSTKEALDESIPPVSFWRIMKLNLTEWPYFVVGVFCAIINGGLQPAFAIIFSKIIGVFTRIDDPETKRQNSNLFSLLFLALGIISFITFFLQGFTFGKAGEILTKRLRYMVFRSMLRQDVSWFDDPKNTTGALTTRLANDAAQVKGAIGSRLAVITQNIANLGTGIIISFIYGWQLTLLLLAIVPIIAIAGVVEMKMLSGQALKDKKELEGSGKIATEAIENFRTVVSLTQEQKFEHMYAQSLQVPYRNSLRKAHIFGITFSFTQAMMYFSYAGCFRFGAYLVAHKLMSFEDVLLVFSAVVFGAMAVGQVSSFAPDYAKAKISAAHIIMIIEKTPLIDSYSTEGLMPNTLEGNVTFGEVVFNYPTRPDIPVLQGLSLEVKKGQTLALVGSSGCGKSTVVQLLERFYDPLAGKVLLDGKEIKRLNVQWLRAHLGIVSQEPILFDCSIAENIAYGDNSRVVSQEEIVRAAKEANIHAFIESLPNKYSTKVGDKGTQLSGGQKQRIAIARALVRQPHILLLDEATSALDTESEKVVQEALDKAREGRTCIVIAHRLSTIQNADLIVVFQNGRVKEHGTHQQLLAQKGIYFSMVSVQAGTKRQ

DLD-1 = assay: Antiproliferative activity against human DLD1 cells assessed as reduction in cell viability; assay type: functional, cell-based
MDA-MB-231 = assay: Antiproliferative activity against human MDA-MB-231 cells assessed as reduction in cell viability; assay type: functional, cell-based
MCF7 [2] = assay: Antiproliferative activity against human MCF7 cells assessed as reduction in cell viability; assay type: functional, cell-based
LoVo = assay: Antiproliferative activity against human LoVo cells assessed as reduction in cell viability; assay type: functional, cell-based
[3] = Antiproliferative activity against human KB-8-5-11 cells assessed as reduction in cell viability after 96 hrs by methylene blue staining based spectrophotometric method; assay type: functional
KB 3-1 = assay: Antiproliferative activity against human KB3-1 cells assessed as reduction in cell viability after 96 hrs by methylene blue staining based spectrophotometric method; assay type: functional; conditions: KB 3-1, 96 h
MCF7 [4] = assay: Antiproliferative activity against human MCF7 cells assessed as reduction in cell viability by MTT assay; assay type: functional, cell-based
Bel-7402 = assay: Antiproliferative activity against human Bel7402 cells assessed as reduction in cell viability by MTT assay; assay type: functional, cell-based
A549 [5] = assay: Antiproliferative activity against human A549 cells assessed as reduction in cell viability by MTT assay; assay type: functional, cell-based
A2780 = assay: Antiproliferative activity against human A2780 cells assessed as reduction in cell viability by MTT assay; assay type: functional, cell-based
SK-OV-3 = assay: Antiproliferative activity against human SKOV3 cells assessed as reduction in cell viability incubated for 24 hrs by SRB assay; assay type: functional, cell-based; conditions: SK-OV-3, 24 h
SK-MEL-2 = assay: Antiproliferative activity against human SK-MEL-2 cells assessed as reduction in cell viability incubated for 24 hrs by SRB assay; assay type: functional, cell-based; conditions: SK-MEL-2, 24 h
MCF7 [6] = assay: Antiproliferative activity against human MCF7 cells assessed as reduction in cell viability incubated for 24 hrs by SRB assay; assay type: functional, cell-based; conditions: MCF7, 24 h
A549 [7] = assay: Antiproliferative activity against human A549 cells assessed as reduction in cell viability incubated for 24 hrs by SRB assay; assay type: functional, cell-based; conditions: A549, 24 h
HCT-15 = assay: Antiproliferative activity against human HCT15 cells assessed as reduction in cell viability incubated for 24 hrs by SRB assay; assay type: functional, cell-based; conditions: HCT-15, 24 h

Structure (SMILES): COc1c(CO)c2c(c(OC)c1OC)-c1ccc(OC)c(=O)cc1[C@@H](NC(C)=O)CC2
IC50 [3]: > 1000 nM
IC50 (KB 3-1): 260 nM

Structure (SMILES): COc1cc2c(c(OC)c1OC)-c1ccc(N3CCNCC3)c(=O)cc1[C@@H](NC(C)=O)CC2
IC50 (HCT-116): > 10 µM
IC50 (COLO 205): 8000 nM
Activity [1]: 95.52%

Structure (SMILES): CNc1ccc2c(cc1=O)[C@@H](NC(=O)CCC(=O)OCCCCO[N+](=O)[O-])CCc1cc(OC)c(OC)c(OC)c1-2
IC50 (MCF7 [4]): 8 nM
IC50 (Bel-7402): 13 nM
IC50 (A549 [5]): 12 nM
IC50 (A2780): 10 nM

Structure (SMILES): CNc1ccc2c(cc1=O)[C@@H](NC(=O)CCC(=O)OCCCO[N+](=O)[O-])CCc1cc(OC)c(OC)c(OC)c1-2
IC50 (MCF7 [4]): 135 nM
IC50 (Bel-7402): 85 nM
IC50 (A549 [5]): 88 nM
IC50 (A2780): 99 nM

Structure (SMILES): COc1cc2c(c(OC)c1OC)-c1ccc(SC)c(=O)cc1[C@@H](NC(=O)CCC1=C(C)c3cc4[nH]c(cc5nc(cc6[nH]c(cc1n3)c(CCC(=O)N[C@H]1CCc3cc(OC)c(OC)c(OC)c3-c3ccc(SC)c(=O)cc31)c6C)C(C(C)O)=C5C)c(C(C)O)c4C)CC2 (stereo not given in full)
IC50 (SK-OV-3): 2860 nM
IC50 (SK-MEL-2): 2840 nM
IC50 (MCF7 [6]): 3220 nM
IC50 (A549 [7]): 1680 nM
IC50 (HCT-15): 4840 nM

Structure (SMILES): COc1cc2c(c(OC)c1OC)-c1ccc(N3CCC(N)CC3)c(=O)cc1[C@@H](NC(C)=O)CC2
IC50 (HCT-116): 10 µM
IC50 (COLO 205): 5000 nM
Activity [1]: 102.04%

Structure (SMILES): COc1c(COC(C)=O)c2c(c(OC)c1OC)-c1ccc(OC)c(=O)cc1[C@@H](NC(C)=O)CC2
IC50 [3]: > 1000 nM
IC50 (KB 3-1): > 1000 nM

Structure (SMILES): CC/C=C\C/C=C\C/C=C\C/C=C\C/C=C\C/C=C\CCC(=O)N[C@H]1CCc2cc(OC)c(OC)c(OC)c2-c2ccc(SC)c(=O)cc21
IC50 (SK-OV-3): 2630 nM
IC50 (SK-MEL-2): 2000 nM
IC50 (MCF7 [6]): 494 nM
IC50 (A549 [7]): 917 nM
IC50 (HCT-15): 392 nM

Structure (SMILES): COc1cc2c(c(OC)c1OC)-c1ccc(Nc3ccc4c(c3)OCO4)c(=O)cc1[C@@H](NC(C)=O)CC2
IC50 (HCT-116): 4 µM
IC50 (COLO 205): 3000 nM
Activity [1]: 102.66%

Structure (SMILES): COc1cc2c(c(OC)c1OC)-c1ccc(N3CCN(C(=O)OC(C)(C)C)CC3)c(=O)cc1[C@@H](NC(C)=O)CC2
IC50 (HCT-116): 4 µM
IC50 (COLO 205): 3000 nM
Activity [1]: 90.94%

Next, values leading:

IC50 (HCT-116): 0.15 µM
IC50 (COLO 205): 120 nM
Activity [1]: 107.41%
Structure (SMILES): COc1cc2c(c(OC)c1OC)-c1ccc(=N)c(O)cc1[C@@H](NC(C)=O)CC2

IC50 (HCT-116): 0.8 µM
IC50 (COLO 205): 430 nM
Activity [1]: 95.38%
Structure (SMILES): CCN(CC)c1ccc2c(cc1=O)[C@@H](NC(C)=O)CCc1cc(OC)c(OC)c(OC)c1-2

IC50 (DLD-1): 71.8 nM
IC50 (MDA-MB-231): 704 nM
IC50 (MCF7 [2]): 764 nM
IC50 (LoVo): 56.1 nM
Structure (SMILES): CCCSc1ccc2c(cc1=O)[C@@H](NC(C)=O)CCc1cc(OC)c(OC)c(OC)c1-2

IC50 (DLD-1): 51.2 nM
IC50 (MDA-MB-231): 148 nM
IC50 (MCF7 [2]): 56.1 nM
IC50 (LoVo): 19.5 nM
Structure (SMILES): CCSc1ccc2c(cc1=O)[C@@H](NC(C)=O)CCc1cc(OC)c(OC)c(OC)c1-2

IC50 (DLD-1): 317 nM
IC50 (MDA-MB-231): 1770 nM
IC50 (MCF7 [2]): 874 nM
IC50 (LoVo): 438 nM
Structure (SMILES): CCCCSc1ccc2c(cc1=O)[C@@H](NC(C)=O)CCc1cc(OC)c(OC)c(OC)c1-2

IC50 (DLD-1): 177 nM
IC50 (MDA-MB-231): 1100 nM
IC50 (MCF7 [2]): 564 nM
IC50 (LoVo): 150 nM
Structure (SMILES): COc1cc2c(c(OC)c1OC)-c1ccc(SC(C)C)c(=O)cc1[C@@H](NC(C)=O)CC2

IC50 (HCT-116): 3 µM
IC50 (COLO 205): 1800 nM
Activity [1]: 119.01%
Structure (SMILES): COc1cc2c(c(OC)c1OC)-c1ccc(N3CCCCC3)c(=O)cc1[C@@H](NC(C)=O)CC2

IC50 (HCT-116): > 10 µM
IC50 (COLO 205): 8000 nM
Activity [1]: 95.49%
Structure (SMILES): CCOC(=O)C1CCN(c2ccc3c(cc2=O)[C@@H](NC(C)=O)CCc2cc(OC)c(OC)c(OC)c2-3)CC1

IC50 (HCT-116): 0.3 µM
IC50 (COLO 205): 240 nM
Activity [1]: 107.12%
Structure (SMILES): COc1cc2c(c(OC)c1OC)-c1ccc(N3CCCC3)c(=O)cc1[C@@H](NC(C)=O)CC2
